In patent US12129276B2, “Oxysterols and methods of use thereof” (SAGE THERAPEUTICS, INC., priority 2014, dated 2024):

Assays:
[1] = target: T1, NR1/NR2A glutamate receptors expressed in mammalian cells (Homo sapiens, UniProt Q05586+Q12879); assay: Whole-cell patch clamp of mammalian cells (IWB, Ion Works Barracuda); assay type: cell-based; conditions: 3 μM test article, co-application with EC20 L-glutamate and 30 μM glycine
T1 construct: expressed in transfected cells
Description: The whole-cell patch-clamp technique was used to investigate the effects of compounds on NR1/NR2A glutamate receptors expressed in mammalian cells.
Test article effects were evaluated in 8-point concentration-response format (4 replicate wells/concentration). All test and control solutions contained 0.3% DMSO and 0.01% Kolliphor® EL (C5135, Sigma). The test article formulations were loaded in a 384-well compound plate using an automated liquid handling system (SciClone ALH3000, Caliper LifeScienses). The measurements were performed using Ion Works Barracuda platform following this procedure: Electrophysiological Procedures: • a) Intracellular solution (mM): 50 mM CsCl, 90 mM CsF, 2 mM MgCl2, 5 mM EGTA, 10 mM HEPES. Adjust to pH 7.2 with CsOH. • b) Extracellular solution, HB-PS (composition in mM): NaCl, 137; KCl, 1.0; CaCl2, 5; HEPES, 10; Glucose, 10; pH adjusted to 7.4 with NaOH (refrigerated until use). • c) Holding potential: −70 mV, potential during agonist/PAM application: −40 mV. Recording Procedure: • a) Extracellular buffer will be loaded into the PPC plate wells (11 μL per well). Cell suspension will be pipetted into the wells (9 μL per well) of the PPC planar electrode. • b) Whole-cell recording configuration will be established via patch perforation with membrane currents recorded by on-board patch clamp amplifiers. • c) Two recordings (scans) will be performed. First, during pre-application of PAM alone (duration of pre-application—5 min) and second, during test articles and agonist (EC20 L-glutamate and 30 μM glycine) co-application to detect positive modulatory effects of the test article.
Test Article Administration: The first pre-application will consist of the addition of 20 μL of 2× concentrated test article solution and, second, of 20 μL of 1× concentrated test article and agonist at 10 μL/s (2 second total application time).

[2] = target: T2, NMDA receptor (GRIN1/GRIN2A subunits) expressed in HEK cells (Homo sapiens, UniProt Q05586+Q12879); assay: Whole-cell patch clamp of mammalian cells, NMDA potentiation; assay type: cell-based; design: key: “A” indicates >5 to 50%; B: >50%; C indicates not active in the assay; conditions: 1 μM test article, 30 μM NMDA and 5.0 μM glycine, holding potential −80 mV
T2 construct: expressed in transfected cells
T2 sequence (Q12879 23-1464, other chains not shown): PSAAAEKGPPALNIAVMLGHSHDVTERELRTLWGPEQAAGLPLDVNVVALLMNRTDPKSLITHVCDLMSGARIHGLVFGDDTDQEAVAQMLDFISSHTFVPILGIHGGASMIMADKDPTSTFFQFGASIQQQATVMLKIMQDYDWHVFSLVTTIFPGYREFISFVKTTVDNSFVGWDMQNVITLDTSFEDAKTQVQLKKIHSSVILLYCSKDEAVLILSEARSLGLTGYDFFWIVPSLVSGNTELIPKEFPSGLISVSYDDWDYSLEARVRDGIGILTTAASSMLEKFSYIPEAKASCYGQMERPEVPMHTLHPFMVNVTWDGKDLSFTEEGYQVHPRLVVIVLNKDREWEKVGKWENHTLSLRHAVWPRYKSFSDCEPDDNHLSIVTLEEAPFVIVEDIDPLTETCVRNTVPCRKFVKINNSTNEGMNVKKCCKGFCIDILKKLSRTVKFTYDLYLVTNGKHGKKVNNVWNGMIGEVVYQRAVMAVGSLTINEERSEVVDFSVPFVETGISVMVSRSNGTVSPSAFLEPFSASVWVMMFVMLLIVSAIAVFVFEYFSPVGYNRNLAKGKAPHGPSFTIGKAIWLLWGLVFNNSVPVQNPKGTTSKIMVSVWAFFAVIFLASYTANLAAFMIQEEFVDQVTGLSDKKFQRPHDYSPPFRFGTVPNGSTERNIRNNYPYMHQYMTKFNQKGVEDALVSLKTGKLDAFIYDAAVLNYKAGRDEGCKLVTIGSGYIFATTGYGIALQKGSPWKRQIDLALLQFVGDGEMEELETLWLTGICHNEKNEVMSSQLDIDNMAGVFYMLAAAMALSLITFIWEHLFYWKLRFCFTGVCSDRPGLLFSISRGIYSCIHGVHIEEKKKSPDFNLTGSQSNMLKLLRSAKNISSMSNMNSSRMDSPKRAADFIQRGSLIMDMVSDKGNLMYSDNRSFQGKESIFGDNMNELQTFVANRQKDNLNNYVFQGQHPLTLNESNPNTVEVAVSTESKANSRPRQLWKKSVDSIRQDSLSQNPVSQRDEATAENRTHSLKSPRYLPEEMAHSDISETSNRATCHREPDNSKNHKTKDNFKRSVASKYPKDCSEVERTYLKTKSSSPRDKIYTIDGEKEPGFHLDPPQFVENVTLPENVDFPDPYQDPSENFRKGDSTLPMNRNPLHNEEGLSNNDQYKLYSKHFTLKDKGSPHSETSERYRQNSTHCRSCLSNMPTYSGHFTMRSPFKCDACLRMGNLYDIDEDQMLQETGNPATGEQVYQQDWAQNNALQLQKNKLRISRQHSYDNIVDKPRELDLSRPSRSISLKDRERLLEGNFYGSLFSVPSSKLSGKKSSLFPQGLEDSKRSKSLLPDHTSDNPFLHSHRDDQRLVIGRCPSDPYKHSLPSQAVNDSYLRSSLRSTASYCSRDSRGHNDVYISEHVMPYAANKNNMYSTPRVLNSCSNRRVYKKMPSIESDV
Description: NMDA potentiation was assessed using either whole cell patch clamp of mammalian cells which expressed NMDA receptors, or using two-electrode voltage clamp (TEVC) of Xenopus laevis oocytes expressing NMDA receptors.
The whole-cell patch-clamp technique was used to investigate the effects of compounds on the NMDA receptor (GRIN1/GRIN2A subunits) expressed in HEK cells. NMDA/Glycine peak and steady-state currents were recorded from stably transfected cells expressing the NMDA receptor and the modulatory effects of the test items on these currents were investigated.
Cells were stably transfected with human GRIN1 (variant NR1-3). These cells were transiently transfected (Lipofectamine™) with GRIN2A cDNA and CD8 (pLeu) antigene cDNA. About 24-72 hours following transfection 1 μl Dynabeads M-45 CD8 was added to identify successfully transfected cells (Jurman et al., Biotechniques (1994) 17:876-881). Cells were passaged to a confluence of 50-80%. Cells were seeded onto Poly-L-Lysine coated cover slips covered with culture complete medium in a 35 mm culture dish. Confluent clusters of cells are electrically coupled (Pritchett et al., Science (1988), 242:1306-8). Because responses in distant cells are not adequately voltage clamped and because of uncertainties about the extent of coupling (Verdoorn et al., Neuron (1990), 4:919-28), cells were cultivated at a density that enables single cells (without visible connections to neighboring cells) to be measured. Cells were incubated at 37° C. in a humidified atmosphere with 5% CO2 (rel. humidity about 95%). The cells were continuously maintained in and passaged in sterile culture flasks containing a 1:1 mixture of Dulbecco's modified eagle medium and nutrient mixture F-12 (D-MEM/F-12 1×, liquid, with L-Glutamine) supplemented with 9% fetal bovine serum and 0.9% Penicillin/Streptomycin solution. The complete medium was supplemented with 3.0 μg/ml Puromycin.
Whole cell currents were measured with HEKA EPC-10 amplifiers using PatchMaster software. Cell culture dishes for recordings were placed on the dish holder of the microscope and continuously perfused (1 ml/min) with “bath solution” (NaCl 137 mM, KCl 4 mM, CaCl2) 1.8 mM, MgCl2 1 mM, HEPES 10 mM, D-Glucose 10 mM, pH (NaOH) 7.4). All solutions applied to cells including the pipette solution were maintained at room temperature (19° C.-30° C.). After formation of a Gigaohm seal between the patch electrodes and transfected individual HEK 293 cells (pipette resistance range: 2.5 MΩ-6.0 MΩ; seal resistance range: >1 GQ) the cell membrane across the pipette tip was ruptured to assure electrical access to the cell interior (whole-cell patch-configuration). At this point the bath solution is switched to “NMDA bath solution” (NaCl 137 mM, KCl 4 mM, CaCl2) 2.8 mM, HEPES 10 mM, D-Glucose 10 mM, Cremophore 0.02%, pH (NaOH) 7.4). NMDA inward currents were measured upon application of 30 μM NMDA (and 5.0 μM Glycine) to patch-clamped cells (2 applications) for 5 s. The cells were voltage clamped at a holding potential of −80 mV. For the analysis of test articles, NMDA receptors were stimulated by 30 μM NMDA and 5.0 μM Glycine after sequential pre-incubation of increasing concentrations of the test article. Pre-incubation duration was 30 s. Stimulation duration was 5 s Test articles were dissolved in DMSO to form stock solutions of 0.1 mM and 1 mM. Test articles were diluted to 0.1 μM and 1 μM in “NMDA bath solution”. Both concentrations of test articles were tested on each cell. […]

T1 sequence (Q12879 23-1464, other chains not shown): as above

Compound | GluN2A PCA IWB Ephys % potentiation at 3 μM [1] | NMDA 1a2A (%) Potentiation 1 μM [2]
COC[C@]12CC[C@](C)(O)CC1=CC[C@@H]1[C@@H]2CC[C@]2(C)[C@@H]([C@H](C)CCC(O)C(F)(F)F)CC[C@@H]12 (stereo partly shown) | A (“A” indicates 10 to 150%) | –
C[C@H](CCC(C)(C)O)[C@H]1CC[C@H]2[C@@H]3CC=C4C[C@@H](O)CC[C@]4(CO)[C@H]3CC[C@]12C | – | A (“A” indicates >5 to 50%)
COC[C@]12CC[C@](C)(O)CC1=CC[C@@H]1[C@@H]2CC[C@]2(C)[C@@H]([C@H](C)CCC(C)(C)O)CC[C@@H]12 [drawing 28] | A (“A” indicates 10 to 150%) | –
COC[C@]12CC[C@](C)(O)C[C@@H]1CC[C@H]1[C@@H]3CC[C@H]([C@H](C)CCC(O)C(F)(F)F)[C@@]3(C)CC[C@@H]12 (stereo partly shown) | B (“B” indicates potentiation of >150%) | –
COC[C@]12CC[C@](C)(O)C[C@@H]1CC[C@H]1[C@@H]3CC[C@H]([C@H](C)CCC(C)(C)O)[C@@]3(C)CC[C@@H]12 [drawing 26] | – | B (B: >50%)
COC[C@]12CC[C@](C)(O)C[C@@H]1CC[C@H]1[C@@H]3CC[C@H]([C@H](C)CCCO)[C@@]3(C)CC[C@@H]12 | – | C
COC[C@]12CC[C@](C)(O)C[C@@H]1CC[C@H]1[C@@H]3CC[C@H]([C@H](C)CCC(C)(C)O)[C@@]3(C)CC[C@@H]12 [drawing 32] | A (“A” indicates 10 to 150%) | –
CCC(O)(CC)CC[C@@H](C)[C@H]1CC[C@H]2[C@@H]3CC=C4C[C@@](C)(O)CC[C@]4(COC)[C@H]3CC[C@]12C | A (“A” indicates 10 to 150%) | –
COC[C@]12CC[C@](C)(O)CC1=CC[C@@H]1[C@@H]2CC[C@]2(C)[C@@H]([C@H](C)CCC(C)(C)O)CC[C@@H]12 [drawing 25] | – | A (“A” indicates >5 to 50%)
COC[C@]12CC[C@](C)(O)CC1=CC[C@@H]1[C@@H]2CC[C@]2(C)[C@@H]([C@H](C)CCCO)CC[C@@H]12 | – | A (“A” indicates >5 to 50%)
